Laboratory results as given in patent US20210070748A1, “INHIBITORS OF BRUTONS TYROSINE KINASE” (Pharmacyclics LLC, priority 2015, published 2021).

biological target: T1, BTK-WT (Homo sapiens, UniProt Q06187); assay: Btk in vitro inhibitory activity (one of Method A TR-FRET, Method B electrophoretic mobility shift, Method C radiometric filter binding); format: biochemical; conditions: Table 10, Formula A-I; read-out: BTK-WT (IC50)
T1 construct: purified from insect cells as a full-length construct containing an N-terminal 6X-His tag; His6 (N); made in house; host or cells: insect cells (baculovirus Sf21 in Method B)
T1 sequence (Q06187 whole entry): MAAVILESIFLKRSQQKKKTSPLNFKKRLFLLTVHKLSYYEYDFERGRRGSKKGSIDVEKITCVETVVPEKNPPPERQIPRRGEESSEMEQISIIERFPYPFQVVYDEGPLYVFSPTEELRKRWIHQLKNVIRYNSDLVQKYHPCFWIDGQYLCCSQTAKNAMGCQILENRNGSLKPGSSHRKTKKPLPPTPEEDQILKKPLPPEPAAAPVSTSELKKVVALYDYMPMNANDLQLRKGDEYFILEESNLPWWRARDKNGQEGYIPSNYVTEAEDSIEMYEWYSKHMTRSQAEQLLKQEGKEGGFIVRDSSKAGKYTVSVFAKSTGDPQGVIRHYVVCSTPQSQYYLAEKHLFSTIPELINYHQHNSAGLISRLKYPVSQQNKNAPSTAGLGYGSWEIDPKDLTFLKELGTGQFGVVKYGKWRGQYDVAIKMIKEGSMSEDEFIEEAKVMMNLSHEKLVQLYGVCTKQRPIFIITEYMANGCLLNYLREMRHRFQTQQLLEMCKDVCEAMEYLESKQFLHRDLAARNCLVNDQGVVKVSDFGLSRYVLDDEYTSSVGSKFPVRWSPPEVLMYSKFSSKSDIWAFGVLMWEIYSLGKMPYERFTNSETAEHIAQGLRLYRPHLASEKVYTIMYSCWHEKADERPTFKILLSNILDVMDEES
Experimental: Btk kinase activity is determined using a time-resolved fluorescence resonance energy transfer (TR-FRET) methodology. Measurements are performed in a reaction volume of 50 μL using 96-well assay plates. […] The reaction is quenched by the addition of 1.2 equivalents of EDTA (relative to divalent cation) in 25 μL of 1× Lance buffer (Perkin-Elmer). […] The TR-FRET signal is measured on a multimode plate reader with an excitation wavelength (λEx) of 330 nm and detection wavelengths (λEm) of 615 and 665 nm. Activity is determined by the ratio of the fluorescence at 665 nm to that at 615 nm. For each compound, enzyme activity is measured at various concentrations of compound. Negative control reactions are performed in the absence of inhibitor in replicates of six, and two no-enzyme controls are used to determine baseline fluorescence levels. Inhibition constants, Ki(app), were obtained using the program BatchKi(Kuzmic et al. (2000), Anal. Biochem. 286:45-50). IC50s are obtained according to the equation:
IC50={Ki(app)/(1+[ATP]/Km^ATP)}+[E]total/2;
Kinase activity is measured in vitro using electrophoretic mobility shift assay. The kinase reactions are assembled in a total volume of 25 μL in 384 well plates. […] The reaction is incubated for one hour and is quenched by the addition of 45 μL of termination buffer (100 mM HEPES, pH7.5, 0.01% Triton X-100, 30 mM EDTA). The terminated reactions are analyzed using 12 channel LabChip® 3000 microfluidic detection instrument (Caliper Life Sciences). […] Change in the relative fluorescence intensity of the substrate and product peaks is the parameter measured, reflecting enzyme activity. In the presence of an inhibitor, the ratio between product and substrate is altered: the signal of the product decreases, while the signal of the substrate increases.
Activity in each sample is determined as the product to sum ratio (PSR): P/(S+P), where P is the peak height of the product peptide and S is the peak height of the substrate peptide. For each compound, enzyme activity is measured at various concentrations (12 concentrations of compound spaced by 3× dilution intervals). Negative control samples (0%-inhibition in the absence of inhibitor) and positive control samples (100%-inhibition, in the presence of 20 mM EDTA) are assembled in replicates of four and are used to calculate %-inhibition values for each inhibitor at each concentration. Percent inhibition (Pinh) is determined using following equation:
Pinh=(PSR0%-PSRinh)/(PSR0%−PSR100%)*100, where PSRinh is the product sum ratio in the presence of inhibitor, PSR0% is the average product sum ration in the absence of inhibitor and PSR100% is the average product sum ratio in 100%-inhibition control samples;
The IC50 values of inhibitors are determined by 4 parameter sigmoidal dose-response model fitting of the inhibition curves (Pinh versus inhibitor concentration) using XLfit 4 software.
Human Btk kinase (Genbank accession # NP_000052) was purified from insect cells as a full-length construct containing an N-terminal 6X-His tag. Btk kinase activity was determined using a radiometric filter binding assay. Measurements are performed in a low μL reaction volume 384-well assay plates. […] IC50 values and curve fits were obtained using Prism (GraphPad Software).

SMILES | IC50 [nM]
C=CC(=O)N[C@@H]1CCCN(c2cnc(C(N)=O)c(Nc3cc(C)ns3)n2)C1 [Example A-86, (R)-5-(3-acrylamidopiperidin-1-yl)-3-(3-methylisothiazol-5-ylamino)pyrazine-2-carboxamide] | ≤ 100
C=CC(=O)N[C@H]1CCCN(c2cnc(C(N)=O)c(Nc3cc(C)ns3)n2)C1 [Example A-87, (S)-5-(3-acrylamidopiperidin-1-yl)-3-(3-methylisothiazol-5-ylamino)pyrazine-2-carboxamide] | ≤ 100
C=CC(=O)N[C@@H]1CCCN(c2cnc(C(N)=O)c(Nc3cccc(-c4ncccn4)c3)n2)C1 [Example A-88, (R)-5-(3-acrylamidopiperidin-1-yl)-3-(3-(pyrimidin-2-yl)phenylamino)pyrazine-2-carboxamide] | 100 to 1000
C=CC(=O)N[C@H]1CCCN(c2cnc(C(N)=O)c(Nc3ccc(-c4ncccn4)cc3)n2)C1 [Example A-89, (S)-5-(3-acrylamidopiperidin-1-yl)-3-(4-(pyrimidin-2-yl)phenylamino)pyrazine-2-carboxamide] | ≤ 100
C=CC(=O)N1CCCN(c2nnc(C(N)=O)c(Nc3ccc(C(C)C)cc3)n2)CC1 [Example A-90, 3-(4-acryloyl-1,4-diazepan-1-yl)-5-(4-isopropylphenylamino)-1,2,4-triazine-6-carboxamide] | ≤ 100

same assay, conditions: Table 11, Formula B-I; read-out: BTK-WT (IC50)

SMILES | IC50 [nM]
C=CC(=O)N[C@@H]1CCC[C@@H](Nc2nnc(C(N)=O)c(Nc3ccc(C(C)C)cc3)n2)C1 (racemic) [Example B-11, 3-((1R,3R)-3-acrylamido-cyclohexylamino)-5-(4-isopropylphenylamino)-1,2,4-triazine-6-carboxamide] | ≤ 100
C=CC(=O)N[C@H]1CCC[C@@H](Nc2nnc(C(N)=O)c(Nc3ccc(C(C)C)cc3)n2)C1 (racemic) [Example B-12, 3-((1R,3S)-3-acrylamido-cyclohexylamino)-5-(4-isopropylphenylamino)-1,2,4-triazine-6-carboxamide] | ≤ 100
C=CC(=O)N(C)[C@H]1CC[C@H](N(C)c2cnc(C(N)=O)c(Nc3cc(C)ns3)n2)CC1 [Example B-6, 5-(methyl((1r,4r)-4-(N-methylacrylamido)cyclohexyl)amino)-3-(3-methylisothiazol-5-ylamino)pyrazine-2-carboxamide] | ≤ 100
C=CC(=O)N[C@H]1CCCC[C@H]1Nc1nnc(C(N)=O)c(Nc2ccc(C(C)C)cc2)n1 [Example B-7, 3-((1R,2S)-2-acrylamido-cyclohexylamino)-5-(4-isopropylphenylamino)-1,2,4-triazine-6-carboxamide] | ≤ 100
C=CC(=O)N[C@@H]1CCCC[C@H]1Nc1nnc(C(N)=O)c(Nc2ccc(C(C)C)cc2)n1 [Example B-8, 3-((1R,2R)-2-acrylamido-cyclohexylamino)-5-(4-isopropylphenylamino)-1,2,4-triazine-6-carboxamide] | ≤ 100
C=CC(=O)N[C@H]1CCCC[C@@H]1Nc1nnc(C(N)=O)c(Nc2ccc(C(C)C)cc2)n1 [Example B-9, 3-((1S,2S)-2-acrylamido-cyclohexylamino)-5-(4-isopropylphenylamino)-1,2,4-triazine-6-carboxamide] | ≤ 100
C=CC(=O)N[C@@H]1CCCC[C@@H]1Nc1nnc(C(N)=O)c(Nc2ccc(C(C)C)cc2)n1 [Example B-10, 3-((1S,2R)-2-acrylamido-cyclohexylamino)-5-(4-isopropylphenylamino)-1,2,4-triazine-6-carboxamide] | ≤ 100

same assay, conditions: Table 12, Formula C-I; read-out: BTK-WT (IC50)

SMILES | IC50 [nM]
C=CC(=O)N1CCC[C@H](Nc2nnc(C(N)=O)c(Nc3ccc(C(C)C)cc3)n2)C1 [Example C-17, (S)-3-(1-acryloylpiperidin-3-ylamino)-5-(4-isopropylphenylamino)-1,2,4-triazine-6-carboxamide] | ≤ 100
CC(C)c1ccc(Nc2nc(N[C@H]3CCCN(C(=O)CN)C3)nnc2C(N)=O)cc1 [Example C-18, (S)-3-(1-(2-aminoacetyl)piperidin-3-ylamino)-5-(4-isopropylphenylamino)-1,2,4-triazine-6-carboxamide] | 100 to 1000
C=CC(=O)NCC(=O)N1CCC[C@H](Nc2nnc(C(N)=O)c(Nc3ccc(C(C)C)cc3)n2)C1 [Example C-19, (S)-3-(1-(2-acrylamidoacetyl)piperidin-3-ylamino)-5-(4-isopropylphenylamino)-1,2,4-triazine-6-carboxamide] | 100 to 1000
CC(C)c1ccc(Nc2nc(N[C@H]3CCCN(C(=O)CCCN)C3)nnc2C(N)=O)cc1 [Example C-20, (S)-3-(1-(4-aminobutanoyl)piperidin-3-ylamino)-5-(4-isopropylphenylamino)-1,2,4-triazine-6-carboxamide] | 100 to 1000
C=CC(=O)NCCCC(=O)N1CCC[C@H](Nc2nnc(C(N)=O)c(Nc3ccc(C(C)C)cc3)n2)C1 [Example C-21, (S)-3-(1-(4-acrylamidobutanoyl)piperidin-3-ylamino)-5-(4-isopropylphenylamino)-1,2,4-triazine-6-carboxamide] | 100 to 1000
C=CC(=O)N1CCC(CNc2nnc(C(N)=O)c(Nc3ccc(C(C)C)cc3)n2)CC1 [Example C-22, 3-((1-acryloylpiperidin-4-yl)methylamino)-5-(4-isopropylphenylamino)-1,2,4-triazine-6-carboxamide] | ≤ 100
C=CC(=O)N1CCC[C@H](N(C)c2cnc(C(N)=O)c(Nc3ccc(C(C)C)cc3)n2)C1 [Example C-23, (S)-5-((1-acryloylpiperidin-3-yl)(methyl)amino)-3-(4-isopropylphenylamino)pyrazine-2-carboxamide] | ≤ 100
C=CC(=O)N1CCC(CN(C)c2cnc(C(N)=O)c(Nc3ccc(C(C)C)cc3)n2)CC1 [Example C-24, 5-(((1-acryloylpiperidin-4-yl)methyl)(methyl)amino)-3-(4-isopropylphenylamino)pyrazine-2-carboxamide] | ≤ 100
C=CC(=O)N1CCC[C@H](N(C)c2cnc(C(N)=O)c(Nc3cc(-c4ccccc4)ns3)n2)C1 [Example C-25, (S)-5-((1-acryloylpiperidin-3-yl)(methyl)amino)-3-(3-phenylisothiazol-5-ylamino)pyrazine-2-carboxamide] | ≤ 100
C=CC(=O)N1CCC[C@@H](Nc2nnc(C(N)=O)c(Nc3ccc(C(C)C)cc3)n2)C1 [Example C-26, (R)-3-(1-acryloylpiperidin-3-ylamino)-5-(4-isopropylphenylamino)-1,2,4-triazine-6-carboxamide] | ≤ 100
C=CC(=O)N1CCC[C@@H](N(C)c2nnc(C(N)=O)c(Nc3ccc(C(C)C)cc3)n2)C1 [Example C-27, (R)-3-((1-acryloylpiperidin-3-yl)(methyl)amino)-5-(4-isopropylphenylamino)-1,2,4-triazine-6-carboxamide] | ≤ 100
C=CC(=O)N1CCC[C@@H](Nc2nnc(C(N)=O)c(Nc3ccc(C(C)C)cc3)n2)[C@H]1C [Example C-28, 3-((2R,3R)-1-acryloyl-2-methylpiperidin-3-ylamino)-5-(4-isopropylphenylamino)-1,2,4-triazine-6-carboxamide] | ≤ 100
